Data reported in patent US9394520B2, “Expansion of hematopoietic stem cells” (University of Rochester, priority 2006, dated 2016).
Entries after “also recorded” stand apart in the source; their conditions may differ.

Assays:
Jagged1 [1] = assay: Jagged1 protein by Western blot in UMR106 cells; format: cell-based; details: UMR106 cells, PKI 200 μg/ml pre-treatment, then PGE2 10^−7 M
Description: UMR 106 cells were serum starved for 24 hours and then treated with a single dose of vehicle (controls) or PGE2 at a concentration of 10^-7 M. RNA was collected from both control and treated samples to assess the fold change in Jagged1 mRNA by real time RT-PCR analysis corrected for by beta-actin. FIG. 1B is a Western blot showing total protein that was collected from both control and treated samples exposed to Jagged1 antibody, C20. Positive control (+ctr) was provided by HS27a cells, a human stromal cell line with high levels of Jagged1 protein, while HS5 cells from a human stromal cell line with minimal Jagged1 levels were used as a negative control. FIG. 2A is a graph showing that inhibition of PKA blocks PGE2-dependent increase of Jagged1 in UMR 106 cells. UMR106 cells were serum starved for 24 hours. They were pre-treated with H89 for 30 minutes followed by a single dose of PGE2 at 10^-7 M or vehicle. RNA was collected from both control and treated samples to assess the fold change in Jagged1 RNA by real time RT-PCR analysis corrected for by β-actin. […] UMR106 cells were serum starved for 24 hours. […] Total RNA was extracted and analyzed by real time RT-PCR, normalizing for β-actin expression and t=0. Total protein was analyzed by Western blots performed using the […] system (Invitrogen, Carlsbad, Calif.). […]

Jagged1 [2] = assay: Jagged1 mRNA by real time RT-PCR in UMR106 cells; format: cell-based
Description: UMR 106 cells were serum starved for 24 hours and then treated with a single dose of vehicle (controls) or PGE2 at a concentration of 10^-7 M. RNA was collected from both control and treated samples to assess the fold change in Jagged1 mRNA by real time RT-PCR analysis corrected for by beta-actin. FIG. 1B is a Western blot showing total protein that was collected from both control and treated samples exposed to Jagged1 antibody, C20. Positive control (+ctr) was provided by HS27a cells, a human stromal cell line with high levels of Jagged1 protein, while HS5 cells from a human stromal cell line with minimal Jagged1 levels were used as a negative control. […] UMR106 cells were serum starved for 24 hours. They were pre-treated with H89 for 30 minutes followed by a single dose of PGE2 at 10^-7 M or vehicle. RNA was collected from both control and treated samples to assess the fold change in Jagged1 RNA by real time RT-PCR analysis corrected for by β-actin. […] UMR106 cells were serum starved for 24 hours. […] Total protein was collected from both PGE2 and vehicle treated samples for Western blot analysis with Jagged1 antibody C-20. UMR106 cells were grown in DMEM supplemented with 1.5 g/l sodium bicarbonate, 10% FBS, penicillin (100 U/ml), streptomycin (100 U/ml). After three days of growth the cells were 80% confluent and media was replaced with serum-free media. After 24 hr in serum-free media, PGE2 was added in noted concentrations. UMR 106 cells were treated with the Protein Kinase A (PKA) inhibitors H89 (0.5 hr prior to PGE2 treatment), and myristoylated PKI (0.5 hr prior to PGE2 treatment). […] At the designated times, total RNA and protein were harvested. Total RNA was extracted and analyzed by real time RT-PCR, normalizing for β-actin expression and t=0. Total protein was analyzed by Western blots performed using the […] system (Invitrogen, Carlsbad, Calif.). Blots were probed with Jag1 c-20 antibody (Santa Cruz Biotechnology, Inc., Santa Cruz, Calif.), and the loading control was B-actin.

Compound: myristoylated PKA Inhibitory Peptide (14-22) [PKI]
- PGE2-dependent Jagged1 protein increase in presence of PKA inhibitor (Jagged1 [1]): blocked; also recorded: inhibited

Compound: CCCC1([C@H](O)C/C=C/[C@H]2[C@H](O)CC(=O)[C@@H]2CCCCCCC(=O)OC)CCC1 [Butaprost, butaprost]
- PGE2-induced Jagged1 expression (Jagged1 [2]; UMR 106 cells, butaprost 10 μM): inhibited

Compound: O=S(=O)(NCCNC/C=C/c1ccc(Br)cc1)c1cccc2cnccc12 [H89]
- PGE2-dependent Jagged1 mRNA increase in presence of PKA inhibitor (Jagged1 [2]; UMR106 cells, H89 pre-treatment 30 minutes, then PGE2 10^−7 M): blocked; also recorded: inhibited

Compound: O=C(O)CC/C=C\CC[C@H]1[C@H](N2CCOCC2)C(=O)C[C@H]1OCc1ccc(-c2ccccc2)cc1 [AH23848]
- PGE2-induced expression of Jagged1 (Jagged1 [2]; osteoblastic cells pretreated 30 minutes with 30 μM AH23848, then PGE2): did not inhibit

Compound: CCCC(=O)Nc1ncnc2c1ncn2[C@@H]1O[C@@H]2COP(=O)(O)O[C@H]2[C@H]1OC(=O)CCC [dibutyryl-cAMP, n6 2′-0-dibutyryladenosine-3′, 5′-cyclic monophpsphate]
- Jagged1 increase by cAMP analogs that activate PKA (Jagged1 [2]; UMR106 cells): sufficient to increase Jagged1
